Structures can show the parent of a compound that is named as a salt.
What was measured:
[1] = Change in body weight and general symptoms in HCC827 tumor-bearing mice
Description: (§1) 0.1 mL of the prepared cell suspension was subcutaneously transplanted to each nude mouse (female, 5 weeks old). […] The administration was started on the day (Day 1) following the grouping date and carried out five times a week (Saturday and Sunday were set to drug holidays). […] The major axis (mm) and minor axis (mm) of each tumor were measured over time using an electronic digital caliper. The estimated tumor volume was calculated according to the expression (1) given below, and plotted. Also, the body weight was measured over time using an automatic balance for small animals. The rate of change in body weight (Change in body weight (%)) was calculated according to the expression (2) given below. […] Estimated tumor volume (mm^3)=Mean estimated tumor volume of individuals per group (1) Estimated tumor volume of each individual=An×Bn^2/2
(§2) Bn: Minor axis of the tumor at Day n Change in body weight (%)=Mean rate of change in body weights of individuals per group (2) Rate of change in body weight of each individual=(1−BWn/BWs)×100
BWn: Body weight at Day n
BWs: Body weight at the initial day of administration

HCC827 cells = experiment: In vivo effect of combined use of Compound A and osimertinib on subcutaneously transplanted HCC827 tumors (estimated tumor volume); parameters: species or system nude mouse;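 also: subcutaneous xenografts in female nude mice, tumor axes measured by caliper over time, volume as major axis × minor axis²/2, dosing from Day 1 five days weekly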
Description: as §1
An: Major axis of the tumor at Day n
as §2

[2] = Day 0, Compound A 12.5 mg/kg, bid
[3] = Day 0, Compound A 25 mg/kg, bid
[4] = Day 0, Compound A 50 mg/kg, bid
[5] = Day 4, Compound A 12.5 mg/kg, bid
[6] = Day 4, Compound A 25 mg/kg, bid
[7] = Day 4, Compound A 50 mg/kg, bid
[8] = Day 7, Compound A 12.5 mg/kg, bid
[9] = Day 7, Compound A 25 mg/kg, bid
[10] = Day 7, Compound A 50 mg/kg, bid
[11] = Day 11, Compound A 12.5 mg/kg, bid
[12] = Day 11, Compound A 25 mg/kg, bid
[13] = Day 11, Compound A 50 mg/kg, bid
[14] = Day 14, Compound A 12.5 mg/kg, bid
[15] = Day 14, Compound A 25 mg/kg, bid
[16] = Day 14, Compound A 50 mg/kg, bid
[17] = Day 18, Compound A 12.5 mg/kg, bid
[18] = Day 18, Compound A 25 mg/kg, bid
[19] = Day 18, Compound A 50 mg/kg, bid
[20] = Day 21, Compound A 12.5 mg/kg, bid
[21] = Day 21, Compound A 25 mg/kg, bid
[22] = Day 21, Compound A 50 mg/kg, bid
[23] = Day 25, Compound A 12.5 mg/kg, bid
[24] = Day 25, Compound A 25 mg/kg, bid
[25] = Day 25, Compound A 50 mg/kg, bid
[26] = Day 28, Compound A 25 mg/kg, bid
[27] = Day 11, osimertinib 3 mg/kg, qd
[28] = Day 14, osimertinib 3 mg/kg, qd
[29] = Day 18, osimertinib 3 mg/kg, qd
[30] = Day 21, osimertinib 3 mg/kg, qd
[31] = Day 25, osimertinib 3 mg/kg, qd
[32] = Day 28, osimertinib 3 mg/kg, qd
[33] = Day 32, osimertinib 3 mg/kg, qd
[34] = Day 35, osimertinib 3 mg/kg, qd
[35] = Day 39, osimertinib 3 mg/kg, qd
[36] = Day 46, osimertinib 3 mg/kg, qd
[37] = Day 49, osimertinib 3 mg/kg, qd
[38] = Day 53, osimertinib 3 mg/kg, qd
[39] = Day 56, osimertinib 3 mg/kg, qd
[40] = Day 60, osimertinib 3 mg/kg, qd
[41] = Day 63, osimertinib 3 mg/kg, qd
[42] = Day 67, osimertinib 3 mg/kg, qd
[43] = Day 74, osimertinib 3 mg/kg, qd
[44] = Day 77, osimertinib 3 mg/kg, qd
[45] = Day 81, osimertinib 3 mg/kg, qd
[46] = Day 84, osimertinib 3 mg/kg, qd
[47] = Day 88, osimertinib 3 mg/kg, qd
[48] = Day 91, osimertinib 3 mg/kg, qd
[49] = Day 95, osimertinib 3 mg/kg, qd
[50] = Day 100, osimertinib 3 mg/kg, qd

## COc1cc(-c2cnc(N)c(-c3ccc(NC(=O)c4cn(CC5CCOCC5)cc(-c5ccc(C)cn5)c4=O)cc3F)c2)ccc1OC[C@H]1COCCO1 [Compound A, N-[4-(2-amino-5-{4-[(2R)-1,4-dioxan-2-ylmethoxy]-3-methoxyphenyl}pyridin-3-yl)-3-fluorophenyl]-5-methyl-4′-oxo-1′-(tetrahydro-2H-pyran-4-ylmethyl)-1′,4′-dihydro-2,3′-bipyridine-5′-carboxamide sulfate hydrate]
[1]; [2]
  Mean change in body weight: 0.0%
[1]; [3]
  Mean change in body weight: 0.0%
[1]; [4]
  Mean change in body weight: 0.0%
[1]; [5]
  Mean change in body weight: 1.3%
[1]; [6]
  Mean change in body weight: 0.6%
[1]; [7]
  Mean change in body weight: 0.9%
[1]; [8]
  Mean change in body weight: 0.7%
[1]; [9]
  Mean change in body weight: 1.8%
[1]; [10]
  Mean change in body weight: 1.4%
[1]; [11]
  Mean change in body weight: 1.2%
[1]; [12]
  Mean change in body weight: 1.0%
[1]; [13]
  Mean change in body weight: 2.9%
[1]; [14]
  Mean change in body weight: 0.4%
[1]; [15]
  Mean change in body weight: 0.0%
[1]; [16]
  Mean change in body weight: 2.4%
[1]; [17]
  Mean change in body weight: 3.6%
[1]; [18]
  Mean change in body weight: 0.6%
[1]; [19]
  Mean change in body weight: 3.6%
[1]; [20]
  Mean change in body weight: 4.8%
[1]; [21]
  Mean change in body weight: 3.1%
[1]; [22]
  Mean change in body weight: 6.7%
[1]; [23]
  Mean change in body weight: 4.4%
[1]; [24]
  Mean change in body weight: 4.6%
[1]; [25]
  Mean change in body weight: 5.1%
[1]; [26]
  Mean change in body weight: 3.0%
HCC827 cells; [2]
  Mean estimated tumor volume: 269.0 mm^3
HCC827 cells; [3]
  Mean estimated tumor volume: 273.7 mm^3
HCC827 cells; [4]
  Mean estimated tumor volume: 279.7 mm^3
HCC827 cells; [5]
  Mean estimated tumor volume: 376.3 mm^3
HCC827 cells; [6]
  Mean estimated tumor volume: 366.6 mm^3
HCC827 cells; [7]
  Mean estimated tumor volume: 386.5 mm^3
HCC827 cells; [8]
  Mean estimated tumor volume: 446.8 mm^3
HCC827 cells; [9]
  Mean estimated tumor volume: 458.8 mm^3
HCC827 cells; [10]
  Mean estimated tumor volume: 468.3 mm^3
HCC827 cells; [11]
  Mean estimated tumor volume: 580.4 mm^3
HCC827 cells; [12]
  Mean estimated tumor volume: 550.8 mm^3
HCC827 cells; [13]
  Mean estimated tumor volume: 579.7 mm^3
HCC827 cells; [14]
  Mean estimated tumor volume: 647.2 mm^3
HCC827 cells; [15]
  Mean estimated tumor volume: 631.7 mm^3
HCC827 cells; [16]
  Mean estimated tumor volume: 676.8 mm^3
HCC827 cells; [17]
  Mean estimated tumor volume: 759.0 mm^3
HCC827 cells; [18]
  Mean estimated tumor volume: 718.2 mm^3
HCC827 cells; [19]
  Mean estimated tumor volume: 816.3 mm^3
HCC827 cells; [20]
  Mean estimated tumor volume: 835.6 mm^3
HCC827 cells; [21]
  Mean estimated tumor volume: 792.0 mm^3
HCC827 cells; [22]
  Mean estimated tumor volume: 856.2 mm^3
HCC827 cells; [23]
  Mean estimated tumor volume: 1013.6 mm^3
HCC827 cells; [24]
  Mean estimated tumor volume: 939.4 mm^3
HCC827 cells; [25]
  Mean estimated tumor volume: 1037.5 mm^3
HCC827 cells; [26]
  Mean estimated tumor volume: 1097.1 mm^3

## C=CC(=O)Nc1cc(Nc2nccc(-c3cn(C)c4ccccc34)n2)c(OC)cc1N(C)CCN(C)C [osimertinib, N-(2-{[2-(dimethylamino)ethyl](methyl)amino}-4-methoxy-5-{[4-(1-methyl-1H-indol-3-yl)pyrimidin-2-yl]amino}phenyl)propen-2-amide]
[1]; Day 0, osimertinib 3 mg/kg, qd
  Mean change in body weight: 0.0%
[1]; Day 4, osimertinib 3 mg/kg, qd
  Mean change in body weight: 0.1%
[1]; Day 7, osimertinib 3 mg/kg, qd
  Mean change in body weight: 1.0%
[1]; [27]
  Mean change in body weight: 0.3%
[1]; [28]
  Mean change in body weight: 1.1%
[1]; [29]
  Mean change in body weight: 0.9%
[1]; [30]
  Mean change in body weight: 2.7%
[1]; [31]
  Mean change in body weight: 2.6%
[1]; [32]
  Mean change in body weight: 1.1%
[1]; [33]
  Mean change in body weight: 2.0%
[1]; [34]
  Mean change in body weight: 3.1%
[1]; [35]
  Mean change in body weight: 4.0%
[1]; Day 42, osimertinib 3 mg/kg, qd
  Mean change in body weight: 3.2%
[1]; [36]
  Mean change in body weight: 4.5%
[1]; [37]
  Mean change in body weight: 5.0%
[1]; [38]
  Mean change in body weight: 5.1%
[1]; [39]
  Mean change in body weight: 5.3%
[1]; [40]
  Mean change in body weight: 5.4%
[1]; [41]
  Mean change in body weight: 5.7%
[1]; [42]
  Mean change in body weight: 6.4%
[1]; Day 70, osimertinib 3 mg/kg, qd
  Mean change in body weight: 5.7%
[1]; [43]
  Mean change in body weight: 7.4%
[1]; [44]
  Mean change in body weight: 6.6%
[1]; [45]
  Mean change in body weight: 8.9%
[1]; [46]
  Mean change in body weight: 8.0%
[1]; [47]
  Mean change in body weight: 8.8%
[1]; [48]
  Mean change in body weight: 9.6%
[1]; [49]
  Mean change in body weight: 11.7%
[1]; Day 98, osimertinib 3 mg/kg, qd
  Mean change in body weight: 11.2%
[1]; [50]
  Mean change in body weight: 11.9%
HCC827 cells; Day 0, osimertinib 3 mg/kg, qd
  Mean estimated tumor volume: 259.3 mm^3
HCC827 cells; Day 4, osimertinib 3 mg/kg, qd
  Mean estimated tumor volume: 93.1 mm^3
HCC827 cells; Day 7, osimertinib 3 mg/kg, qd
  Mean estimated tumor volume: 56.7 mm^3
HCC827 cells; [27]
  Mean estimated tumor volume: 38.7 mm^3
HCC827 cells; [28]
  Mean estimated tumor volume: 33.1 mm^3
HCC827 cells; [29]
  Mean estimated tumor volume: 30.9 mm^3
HCC827 cells; [30]
  Mean estimated tumor volume: 29.6 mm^3
HCC827 cells; [31]
  Mean estimated tumor volume: 32.0 mm^3
HCC827 cells; [32]
  Mean estimated tumor volume: 32.0 mm^3
HCC827 cells; [33]
  Mean estimated tumor volume: 35.5 mm^3
HCC827 cells; [34]
  Mean estimated tumor volume: 42.1 mm^3
HCC827 cells; [35]
  Mean estimated tumor volume: 44.9 mm^3
HCC827 cells; [36]
  Mean estimated tumor volume: 53.3 mm^3
HCC827 cells; [37]
  Mean estimated tumor volume: 63.7 mm^3
HCC827 cells; [38]
  Mean estimated tumor volume: 80.8 mm^3
HCC827 cells; [39]
  Mean estimated tumor volume: 92.4 mm^3
HCC827 cells; [40]
  Mean estimated tumor volume: 103.3 mm^3
HCC827 cells; [41]
  Mean estimated tumor volume: 134.1 mm^3
HCC827 cells; [42]
  Mean estimated tumor volume: 146.2 mm^3
HCC827 cells; [43]
  Mean estimated tumor volume: 182.1 mm^3
HCC827 cells; [44]
  Mean estimated tumor volume: 220.1 mm^3
HCC827 cells; [45]
  Mean estimated tumor volume: 285.7 mm^3
HCC827 cells; [46]
  Mean estimated tumor volume: 341.2 mm^3
HCC827 cells; [47]
  Mean estimated tumor volume: 404.1 mm^3
HCC827 cells; [48]
  Mean estimated tumor volume: 509.3 mm^3
HCC827 cells; [49]
  Mean estimated tumor volume: 602.4 mm^3
HCC827 cells; [50]
  Mean estimated tumor volume: 727.5 mm^3
HCC827 cells; mouse, in vivo, 3 mg/kg
  Day at which the tumor became bigger than its size at the start of administration (acquired resistance): 81 days
HCC827 cells; osimertinib administered alone, 3 mg/kg qd
  Effect on tumor immediately after administration: tumor regression effect
